The results in this text go back to US8822517B2, “Arylosulfonamides for the treatment of CNS diseases” (Adamed SP. Z O.O., priority 2010, dated 2014).

The target of assay [1] is T1, serotoninergic receptor 5-HT2C (Homo sapiens, UniProt P28335).
T1 construct: expressed in transfected cells; host or cells: HEK-293 cells
T1 sequence (P28335 33-458): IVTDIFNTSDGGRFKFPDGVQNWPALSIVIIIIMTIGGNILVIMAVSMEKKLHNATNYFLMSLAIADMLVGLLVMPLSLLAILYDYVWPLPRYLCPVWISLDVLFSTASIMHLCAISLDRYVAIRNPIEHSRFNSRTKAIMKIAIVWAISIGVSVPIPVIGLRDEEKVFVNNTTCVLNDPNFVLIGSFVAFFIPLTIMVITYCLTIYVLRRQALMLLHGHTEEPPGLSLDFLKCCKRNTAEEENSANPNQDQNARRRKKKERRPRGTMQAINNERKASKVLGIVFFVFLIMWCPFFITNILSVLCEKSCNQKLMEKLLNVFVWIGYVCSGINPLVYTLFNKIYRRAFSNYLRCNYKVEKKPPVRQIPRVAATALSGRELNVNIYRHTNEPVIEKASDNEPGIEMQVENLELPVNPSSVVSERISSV
Description: Binding assay 5-HT2C (h), [3H]mesulergine, HEK-293 cells. To be noted: read-out: 5-HT2C [%]. In a few lines:
(§1)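 Compounds were screened at 1×10^−6 M, and bound radioactivity was measured by scintillation counting. Specific binding equals total binding minus nonspecific binding obtained with an excess of unlabelled ligand.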

Another assay concerns the target T2, adrenergic α2C receptor (Homo sapiens, UniProt P18825).
T2 sequence (P18825 1-462): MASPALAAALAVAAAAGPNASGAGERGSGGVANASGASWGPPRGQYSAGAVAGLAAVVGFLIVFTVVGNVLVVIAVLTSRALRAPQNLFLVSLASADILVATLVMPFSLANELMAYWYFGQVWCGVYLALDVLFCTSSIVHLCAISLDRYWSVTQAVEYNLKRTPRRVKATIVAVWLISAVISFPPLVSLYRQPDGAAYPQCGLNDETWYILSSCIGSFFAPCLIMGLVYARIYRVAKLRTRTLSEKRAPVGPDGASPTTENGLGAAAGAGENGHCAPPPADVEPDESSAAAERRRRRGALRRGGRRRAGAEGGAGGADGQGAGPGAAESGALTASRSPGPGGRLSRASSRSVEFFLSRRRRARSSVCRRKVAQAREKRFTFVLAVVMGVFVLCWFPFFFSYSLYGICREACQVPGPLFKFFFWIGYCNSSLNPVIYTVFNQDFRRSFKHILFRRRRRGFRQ
Description: Binding assay α2C (h), [3H]RX 821002, CHO cells. The arrangement: expressed in transfected cells; host or cells: CHO cells. To be noted: read-out: α2C [%]. In a few lines:
as §1

The target of assay [2] is T3, serotoninergic 5-HT2A receptor (Homo sapiens, UniProt P28223). Description: Cellular functional assay, serotoninergic 5-HT2A receptor (agonism/antagonism). The assay is classed as cell-based. As to conditions: for activation at 1 µM: read-out: 5-HT2A -ag [%]; for inhibition at 1 µM: read-out: 5-HT2A -antag [%]. The method, then:
[…]. The compounds were tested at the concentration of 1×10^−6M.
Conditions and methodology (by reference to the literature) of cellular functional assays are given in Table 13 and the tests results for representative compounds are given in Table 14 (dopaminergic receptor D2), in Table 15 (dopaminergic receptor D3), in Table 16 (serotoninergic receptor 5-HT1A), in Table 17 (serotoninergic receptor 5-HT2A), in Table 18 (serotoninergic receptor 5-HT6), in Table 19 (serotoninergic receptor 5-HT7), in Table 20 (adrenergic α1 receptor), in Table 21 (adrenergic α2C receptor), in Table 22 (histaminergic H1 receptor) and in Table 23 (serotoninergic 5-HT2C receptor). In the Tables ag refers to agonism, and antag to antagonism).

For assay [3], the target named is serotoninergic 5-HT7 receptor (Homo sapiens, UniProt P34969). Description: Cellular functional assay, serotoninergic 5-HT7 receptor (agonism/antagonism). The format is cell-based. To be noted: for activation at 1 µM: agonist effect, percent of control specific agonist response, compounds tested at 1×10^−6M, read-out: 5-HT7-ag [%]; for inhibition at 1 µM: read-out: 5-HT7-antag. [%]. The method, then:
(§2) The compounds were tested at the concentration of 1×10^−6M.
(§3) In the Tables ag refers to agonism, and antag to antagonism).

Assay [4] deals with T3, serotoninergic 5-HT2A receptor. Description: Binding assay 5-HT2A (h), [3H]ketanserin, HEK-293 cells. On the set-up: expressed in transfected cells; host or cells: HEK-293 cells. As to conditions: read-out: 5-HT2A. Summed up:
as §1

Assay [5] concerns the target T4, serotoninergic 5-HT1A receptor (Homo sapiens, UniProt P08908).
T4 sequence (P08908 1-422): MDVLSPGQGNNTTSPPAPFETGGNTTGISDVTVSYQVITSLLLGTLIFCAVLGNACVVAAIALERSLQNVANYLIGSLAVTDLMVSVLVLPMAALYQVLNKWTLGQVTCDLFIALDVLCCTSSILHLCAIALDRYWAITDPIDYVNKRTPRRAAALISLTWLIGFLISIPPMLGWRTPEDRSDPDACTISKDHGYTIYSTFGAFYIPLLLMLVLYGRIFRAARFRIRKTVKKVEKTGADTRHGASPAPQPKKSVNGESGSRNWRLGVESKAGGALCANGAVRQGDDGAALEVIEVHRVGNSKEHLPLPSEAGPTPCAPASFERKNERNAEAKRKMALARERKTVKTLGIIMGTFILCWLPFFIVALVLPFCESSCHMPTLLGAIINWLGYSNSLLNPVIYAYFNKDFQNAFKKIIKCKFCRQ
Description: Binding assay 5-HT1A (h), [3H]8-OH-DPAT, HEK-293 cells. The arrangement: expressed in transfected cells; host or cells: HEK-293 cells. As to conditions: read-out: 5-HT1A. Summed up: as §1

A further assay deals with dopaminergic D3 receptor (Homo sapiens, UniProt P35462). Description: Binding assay D3 (h), [3H]methyl-spiperone, CHO cells. On the set-up: expressed in transfected cells; host or cells: CHO cells. To be noted: read-out: D3 [%]. Summed up:
as §1

Assay [6] deals with histaminergic H1 receptor (Homo sapiens, UniProt P35367). Description: Cellular functional assay, histaminergic H1 receptor (agonism/antagonism). The format is cell-based. To be noted: for activation at 1 µM: agonist effect, percent of control specific agonist response, compounds tested at 1×10^−6M, read-out: H1 -ag [%]; for inhibition at 1 µM: read-out: H1 -antag. [%]. The protocol: as §2, §3
histaminergic H1 receptor, sequence (P35367 whole entry): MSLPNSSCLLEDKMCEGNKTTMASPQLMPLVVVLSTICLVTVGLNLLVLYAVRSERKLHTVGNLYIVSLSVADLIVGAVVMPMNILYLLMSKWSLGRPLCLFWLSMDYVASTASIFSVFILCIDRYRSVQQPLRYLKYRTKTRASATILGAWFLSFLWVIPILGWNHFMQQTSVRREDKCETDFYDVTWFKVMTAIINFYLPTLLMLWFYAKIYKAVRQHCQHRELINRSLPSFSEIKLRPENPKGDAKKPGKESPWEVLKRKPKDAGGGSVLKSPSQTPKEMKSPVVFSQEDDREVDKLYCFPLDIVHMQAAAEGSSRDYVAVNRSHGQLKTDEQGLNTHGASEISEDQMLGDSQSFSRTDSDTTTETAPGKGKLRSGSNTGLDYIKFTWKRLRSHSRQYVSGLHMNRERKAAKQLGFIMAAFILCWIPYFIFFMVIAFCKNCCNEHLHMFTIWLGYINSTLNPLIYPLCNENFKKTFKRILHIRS

For another assay, the target named is dopaminergic D2 receptor (Homo sapiens, UniProt P14416). Description: Cellular functional assay, dopaminergic D2 receptor (agonism/antagonism). The assay is classed as cell-based. To be noted: HEK293; for activation at 1 µM: agonist effect, percent of control specific agonist response (3 μM dopamine for control), 1×10^−6 M, D2S (h), HEK-293 cells, read-out: D2-ag [%]; for inhibition at 1 µM: read-out: D2-antag. [%]. The protocol: as §2, §3
dopaminergic D2 receptor, sequence (P14416 whole entry): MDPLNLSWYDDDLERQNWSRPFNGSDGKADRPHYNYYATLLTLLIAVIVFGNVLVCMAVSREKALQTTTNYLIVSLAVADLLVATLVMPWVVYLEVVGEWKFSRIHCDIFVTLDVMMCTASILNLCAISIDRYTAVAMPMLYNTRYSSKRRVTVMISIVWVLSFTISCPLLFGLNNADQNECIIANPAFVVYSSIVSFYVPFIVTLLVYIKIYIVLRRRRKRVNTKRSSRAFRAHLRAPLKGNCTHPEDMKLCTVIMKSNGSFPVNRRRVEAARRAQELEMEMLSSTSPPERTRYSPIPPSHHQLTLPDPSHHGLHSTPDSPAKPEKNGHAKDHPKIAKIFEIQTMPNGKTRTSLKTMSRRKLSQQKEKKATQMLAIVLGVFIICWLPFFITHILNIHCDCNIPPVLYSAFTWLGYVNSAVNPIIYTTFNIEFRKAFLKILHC

In a further assay the test system is adrenergic α1 receptor. Description: Binding assay α1 (non-selective), [3H]prazosin, rat cerebral cortex. As to conditions: percent inhibition of control specific binding; compounds tested at 1×10^−6 M. Summed up:
as §1

The test system of a further assay is sigma σ receptor. Description: Binding assay σ (non-selective), [3H]DTG, rat cerebral cortex. To be noted: percent inhibition of control specific binding; compounds tested at 1×10^−6 M. In a few lines:
as §1

dopaminergic D3 receptor, sequence (P35462 whole entry): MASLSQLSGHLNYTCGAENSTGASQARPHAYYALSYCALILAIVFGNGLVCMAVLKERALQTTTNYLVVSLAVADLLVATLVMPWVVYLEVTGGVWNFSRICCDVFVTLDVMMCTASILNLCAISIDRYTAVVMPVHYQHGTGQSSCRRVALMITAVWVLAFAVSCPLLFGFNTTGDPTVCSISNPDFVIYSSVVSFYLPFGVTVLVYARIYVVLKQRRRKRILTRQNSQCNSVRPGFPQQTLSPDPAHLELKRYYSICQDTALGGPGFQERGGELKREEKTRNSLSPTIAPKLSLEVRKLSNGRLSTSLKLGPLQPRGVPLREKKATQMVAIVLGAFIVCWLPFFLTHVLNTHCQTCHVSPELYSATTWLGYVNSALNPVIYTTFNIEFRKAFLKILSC
T3 sequence (P28223 whole entry): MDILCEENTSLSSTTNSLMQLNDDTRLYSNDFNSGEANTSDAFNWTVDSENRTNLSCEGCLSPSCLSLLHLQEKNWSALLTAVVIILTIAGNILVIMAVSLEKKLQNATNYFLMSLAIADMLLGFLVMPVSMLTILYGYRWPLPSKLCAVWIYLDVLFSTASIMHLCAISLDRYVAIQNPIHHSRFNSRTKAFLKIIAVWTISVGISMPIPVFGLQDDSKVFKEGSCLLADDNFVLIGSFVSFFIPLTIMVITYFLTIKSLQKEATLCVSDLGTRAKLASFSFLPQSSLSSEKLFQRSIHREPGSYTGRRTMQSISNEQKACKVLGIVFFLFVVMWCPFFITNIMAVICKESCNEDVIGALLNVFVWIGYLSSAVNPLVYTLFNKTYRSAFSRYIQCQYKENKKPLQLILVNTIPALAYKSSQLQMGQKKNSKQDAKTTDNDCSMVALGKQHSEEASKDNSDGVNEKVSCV
serotoninergic 5-HT7 receptor, sequence (P34969 whole entry): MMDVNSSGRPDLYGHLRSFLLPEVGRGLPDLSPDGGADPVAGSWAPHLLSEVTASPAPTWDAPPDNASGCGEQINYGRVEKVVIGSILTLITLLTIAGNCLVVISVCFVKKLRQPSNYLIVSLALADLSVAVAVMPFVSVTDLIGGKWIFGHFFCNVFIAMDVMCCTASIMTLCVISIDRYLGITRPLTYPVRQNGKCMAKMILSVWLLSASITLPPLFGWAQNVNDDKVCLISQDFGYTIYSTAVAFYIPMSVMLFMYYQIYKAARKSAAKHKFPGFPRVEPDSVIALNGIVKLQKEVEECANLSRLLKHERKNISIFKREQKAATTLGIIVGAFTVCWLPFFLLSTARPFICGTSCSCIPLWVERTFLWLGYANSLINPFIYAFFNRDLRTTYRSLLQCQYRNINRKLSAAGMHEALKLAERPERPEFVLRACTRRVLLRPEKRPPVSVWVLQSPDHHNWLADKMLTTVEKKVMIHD

Take `O=S(=O)(NCCCN1CCC(c2noc3cc(F)ccc23)CC1)c1ccc2cc(Cl)ccc2c1` [Compound 98, 6-Chloro-N-[3-[4-(6-fluoro-1,2-benzoxazol-3-yl)piperidin-1-yl]propyl]naphthalene-2-sulphonamide]: the inhibition at 1 µM in [1] is 91%; on adrenergic α2C receptor, 108%; in assay [2] it was 97%; in [3], 92%; in assay [4] it was 102%; in assay [5] it was 80%. For the same molecule, the inhibition at 1 µM at dopaminergic D3 receptor turned out to be 104%; in [6], 78%; on dopaminergic D2 receptor it was 80%. For the same molecule, the activation at 1 µM is -2% in [2], -2% in assay [3], -1% in [6] and 4% on dopaminergic D2 receptor.
Consider `O=S(=O)(NCCCN1CCC(c2noc3cc(F)ccc23)CC1)c1ccc(F)c(Cl)c1` [Compound 331, 3-Chloro-4-fluoro-N-[3-[4-(6-fluoro-1,2-benzoxazol-3-yl)piperidin-1-yl]propyl]benzenesulphonamide], for which the inhibition at 1 µM is 82% in assay [1]; 104% on adrenergic α2C receptor; 98% in [2]; 102% in assay [3]; 102% in assay [4]; 82% in assay [5]. For the same molecule, the inhibition at 1 µM on dopaminergic D3 receptor was determined as 100%; in assay [6], 85%; at dopaminergic D2 receptor, 87%. Further, the activation at 1 µM in [2] is -1%; in assay [3] it was -2%; in [6], 2%; on dopaminergic D2 receptor it was 4%.
For the molecule `O=S(=O)(NCCCCN1CCN(c2noc3ccccc23)CC1)c1ccc(-c2ccccc2)cc1` [Compound 283, N-[4-[4-(1,2-Benzoxazol-3-yl)piperazin-1-yl]butyl]-4-phenylbenzenesulphonamide], the inhibition at 1 µM in assay [1] is 80%; on adrenergic α2C receptor, 109%; in assay [2], 99%; in assay [3] it was 93%; in [4], 103%; in [5] it was 89%. Also, the inhibition at 1 µM at dopaminergic D3 receptor came to 101%; in [6], 41%. In addition, the activation at 1 µM in [2] was 0%; in assay [3], -2%; in assay [6], 0%. Further, the “α1 [%]” value in the assay on adrenergic α1 receptor came out at 92%. For the same molecule, the “σ [%]” value with sigma σ receptor was found to be 34%.
`O=S(=O)(NCCCCN1CCN(c2cccc3[nH]ccc23)CC1)c1ccc2ccccc2c1` [Compound 26, N-{4-[4-(1H-Indol-4-yl)piperazin-1-yl]butyl}naphthalene-2-sulphonamide]: the inhibition at 1 µM amounted to 19% in [1]; 100% on adrenergic α2C receptor; 77% in [2]; 13% in [3]; 98% in assay [4]; 100% in assay [5]. Also, the inhibition at 1 µM on dopaminergic D3 receptor turned out to be 98%; at dopaminergic D2 receptor it was 99%. Moreover, the activation at 1 µM in [2] was -1%; in [3], 14%; at dopaminergic D2 receptor, 29%. Moreover, the “α1 [%]” value in the assay on adrenergic α1 receptor was found to be 98%. In addition, in the assay with sigma σ receptor, the “σ [%]” value came to 99%.
Regarding `Cc1cccc(S(=O)(=O)NCCCN2CCC(c3noc4cc(F)ccc34)CC2)c1` [Compound 22, N-[3-[4-(6-Fluoro-1,2-benzoxazol-3-yl)piperidin-1-yl]propyl]-3-methylbenzenesulphonamide], the inhibition at 1 µM in assay [1] came out at 73%; at adrenergic α2C receptor, 100%; in assay [2], 102%; in assay [3], 100%; in assay [4], 99%; in assay [5] it was 75%. The inhibition at 1 µM at dopaminergic D3 receptor was determined as 96%; at dopaminergic D2 receptor, 99%. Also, the figures for the activation at 1 µM (in assay [2]; in assay [3]; on dopaminergic D2 receptor) were -1%, -1% and 2%, respectively. The “α1 [%]” value in the assay on adrenergic α1 receptor was found to be 100%. For the same molecule, in the assay on sigma σ receptor, the “σ [%]” value came to 92%.
As for `O=S(=O)(NCCCCN1CCN(c2noc3ccccc23)CC1)c1ccc2ccccc2c1` [Compound 14, N-(4-(4-(1,2-Benzoxazol-3-yl)piperazin-1-yl)butyl)naphthalene-2-sulphonamide], the inhibition at 1 µM in assay [1] was 51%; at adrenergic α2C receptor, 100%; in [2] it was 100%; in assay [3], 85%; in [4], 100%; in assay [5], 88%. In addition, the inhibition at 1 µM on dopaminergic D3 receptor was 97%; on dopaminergic D2 receptor, 98%. In addition, the results for the activation at 1 µM (in assay [2]; in [3]; at dopaminergic D2 receptor) were 1%, -1% and 4%, respectively. The “α1 [%]” value with adrenergic α1 receptor is 102%. For the same molecule, the “σ [%]” value in the assay with sigma σ receptor is 40%.
In the case of `O=S(=O)(NCCCCN1CCN(c2cccc3[nH]ccc23)CC1)c1cc2ccc(Cl)cc2s1` [Compound 363, 6-Chloro-N-[4-[4-(1H-indol-4-yl)piperazin-1-yl]butyl]benzothiophene-2-sulphonamide], the inhibition at 1 µM in [1] amounted to 57%; at adrenergic α2C receptor it was 101%; in assay [2] it was 62%; in assay [3] it was 24%; in assay [4] it was 98%; in assay [5] it was 101%. The inhibition at 1 µM at dopaminergic D3 receptor was 101%; at dopaminergic D2 receptor, 94%. The figures for the activation at 1 µM (in assay [2]; in [3]; on dopaminergic D2 receptor) were -1%, 6% and 50%, respectively. Moreover, in the assay on adrenergic α1 receptor, the “α1 [%]” value came out at 92%. Further, the “σ [%]” value in the assay with sigma σ receptor amounted to 96%.
